Assay results as given in ChEMBL document CHEMBL5518204, “Discovery and Proof of Concept of Potent Dual Polθ/PARP Inhibitors for Efficient Treatment of Homologous Recombination-Deficient Tumors” (J Med Chem, 2024).
pIC50: −log10 of the molar value. Calls of active or inactive are those of the source. The calls are words filed in the database; no cut-off is given here.

Assays:
[1] = target: T1, Poly [ADP-ribose] polymerase tankyrase-2 (Homo sapiens, UniProt Q9H2K2); experiment: Inhibition of PARP5b (unknown origin)
T1 sequence (Q9H2K2 whole entry): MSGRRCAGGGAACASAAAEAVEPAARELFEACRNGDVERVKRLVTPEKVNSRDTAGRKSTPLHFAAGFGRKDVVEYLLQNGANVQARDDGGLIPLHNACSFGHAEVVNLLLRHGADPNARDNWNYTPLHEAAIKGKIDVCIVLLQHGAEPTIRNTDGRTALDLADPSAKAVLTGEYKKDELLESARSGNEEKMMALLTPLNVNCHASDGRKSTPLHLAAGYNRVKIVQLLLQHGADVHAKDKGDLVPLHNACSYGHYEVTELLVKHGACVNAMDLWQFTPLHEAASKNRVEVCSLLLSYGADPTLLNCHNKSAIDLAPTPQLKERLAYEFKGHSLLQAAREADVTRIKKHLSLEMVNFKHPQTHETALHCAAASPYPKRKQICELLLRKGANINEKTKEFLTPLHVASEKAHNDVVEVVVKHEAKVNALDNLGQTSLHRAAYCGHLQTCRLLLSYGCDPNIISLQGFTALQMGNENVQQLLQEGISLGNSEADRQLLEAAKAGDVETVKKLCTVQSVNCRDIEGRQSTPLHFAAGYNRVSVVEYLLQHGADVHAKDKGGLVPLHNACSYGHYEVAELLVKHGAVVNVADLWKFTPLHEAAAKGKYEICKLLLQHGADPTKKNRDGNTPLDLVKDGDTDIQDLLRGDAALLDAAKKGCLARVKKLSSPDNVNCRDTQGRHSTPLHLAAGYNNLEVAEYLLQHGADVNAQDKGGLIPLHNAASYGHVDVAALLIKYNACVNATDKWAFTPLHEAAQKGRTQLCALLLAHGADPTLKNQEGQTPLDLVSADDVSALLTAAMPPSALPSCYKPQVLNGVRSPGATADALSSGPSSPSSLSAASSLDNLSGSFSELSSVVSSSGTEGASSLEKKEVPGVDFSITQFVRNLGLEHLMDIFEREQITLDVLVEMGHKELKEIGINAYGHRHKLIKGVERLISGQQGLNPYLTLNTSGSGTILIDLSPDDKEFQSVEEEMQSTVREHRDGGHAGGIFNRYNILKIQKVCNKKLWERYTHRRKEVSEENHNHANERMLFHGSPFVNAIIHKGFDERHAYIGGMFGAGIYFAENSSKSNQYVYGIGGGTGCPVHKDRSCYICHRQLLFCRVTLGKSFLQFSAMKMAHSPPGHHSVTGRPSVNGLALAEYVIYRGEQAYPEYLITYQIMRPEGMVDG

MDA-MB-231 [2] = experiment: Antiproliferative activity against 53BP1-knockdown human MDA-MB-231 cells incubated for 24 hrs by MTT assay; assay type: functional, cell-based
MDA-MB-436 [3] = experiment: Antiproliferative activity against BRCA1-deficient human MDA-MB-436 cells assessed as inhibition of cell proliferation incubated for 5 days by MTT assay; assay type: functional, cell-based; conditions: MDA-MB-436, 120 h
[4] = Tmax in Sprague-Dawley rat at 1 mg/kg, iv by LC-MS/MS analysis; assay type: ADME, organism-based; conditions: in vivo
[5] = MRT (0 to infinity) in Sprague-Dawley rat at 1 mg/kg, iv by LC-MS/MS analysis; assay type: ADME, organism-based; conditions: in vivo
[6] = Antiproliferative activity against human MCF-10A cells assessed as inhibition of cell proliferation incubated for 5 days by MTT assay; assay type: toxicity, cell-based; conditions: human, MCF-10A cells
MDA-MB-436 [7] = experiment: Antiproliferative activity against human MDA-MB-436 cells transfected with SiRNA assessed as inhibition of cell proliferation incubated for 5 days by MTT assay; assay type: functional, cell-based; conditions: time 5.0 day
MDA-MB-231 [8] = experiment: Antiproliferative activity against human MDA-MB-231 cells incubated for 4 days by MTT assay; assay type: functional, cell-based; conditions: time 4.0 day
[9] = AUC (0 to infinity) in Sprague-Dawley rat at 1 mg/kg, iv by LC-MS/MS analysis; assay type: ADME, organism-based; conditions: in vivo
MDA-MB-231 [10] = experiment: Induction of DNA damage in human MDA-MB-231 cells assessed as increase in gammaH2AX foci at 2 uM incubated for 3 days by DAPI staining based confocal laser scanning microscopic analysis; assay type: functional, cell-based; conditions: time 3.0 day
[11] = Metabolic stability in rat liver microsome assessed as half life; assay type: ADME; conditions: liver microsomes
[12] = AUC (0 to t) in Sprague-Dawley rat at 1 mg/kg, iv by LC-MS/MS analysis; assay type: ADME, organism-based; conditions: in vivo
[13] = target: T2, Protein mono-ADP-ribosyltransferase PARP3 (Homo sapiens, UniProt Q9Y6F1); experiment: Inhibition of PARP3 (unknown origin)
T2 sequence (Q9Y6F1 whole entry): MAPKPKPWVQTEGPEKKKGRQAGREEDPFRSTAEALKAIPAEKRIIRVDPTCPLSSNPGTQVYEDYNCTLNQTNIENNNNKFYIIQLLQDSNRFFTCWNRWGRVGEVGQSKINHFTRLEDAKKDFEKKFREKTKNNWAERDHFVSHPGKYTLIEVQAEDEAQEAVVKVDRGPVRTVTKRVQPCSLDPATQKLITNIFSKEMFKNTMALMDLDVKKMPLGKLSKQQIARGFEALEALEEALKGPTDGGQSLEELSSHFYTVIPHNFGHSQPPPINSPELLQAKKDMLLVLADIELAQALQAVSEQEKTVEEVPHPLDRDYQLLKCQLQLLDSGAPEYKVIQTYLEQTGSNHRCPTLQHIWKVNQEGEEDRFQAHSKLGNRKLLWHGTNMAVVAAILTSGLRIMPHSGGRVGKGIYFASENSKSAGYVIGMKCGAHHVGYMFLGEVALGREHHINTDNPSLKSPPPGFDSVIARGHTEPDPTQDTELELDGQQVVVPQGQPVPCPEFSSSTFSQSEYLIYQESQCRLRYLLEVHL

[14] = Metabolic stability in mouse liver microsome assessed as half life; assay type: ADME; conditions: liver microsomes
[15] = Cmax in Sprague-Dawley rat at 1 mg/kg, iv by LC-MS/MS analysis; assay type: ADME, organism-based; conditions: in vivo
DNA polymerase theta = DNA polymerase theta (Homo sapiens, UniProt O75417); experiment: Inhibition of DNA polymerase theta (unknown origin) ATPase activity incubated for 60 mins in presence of ATP by ADP-glo kinase assay
DNA polymerase theta, sequence (O75417 whole entry): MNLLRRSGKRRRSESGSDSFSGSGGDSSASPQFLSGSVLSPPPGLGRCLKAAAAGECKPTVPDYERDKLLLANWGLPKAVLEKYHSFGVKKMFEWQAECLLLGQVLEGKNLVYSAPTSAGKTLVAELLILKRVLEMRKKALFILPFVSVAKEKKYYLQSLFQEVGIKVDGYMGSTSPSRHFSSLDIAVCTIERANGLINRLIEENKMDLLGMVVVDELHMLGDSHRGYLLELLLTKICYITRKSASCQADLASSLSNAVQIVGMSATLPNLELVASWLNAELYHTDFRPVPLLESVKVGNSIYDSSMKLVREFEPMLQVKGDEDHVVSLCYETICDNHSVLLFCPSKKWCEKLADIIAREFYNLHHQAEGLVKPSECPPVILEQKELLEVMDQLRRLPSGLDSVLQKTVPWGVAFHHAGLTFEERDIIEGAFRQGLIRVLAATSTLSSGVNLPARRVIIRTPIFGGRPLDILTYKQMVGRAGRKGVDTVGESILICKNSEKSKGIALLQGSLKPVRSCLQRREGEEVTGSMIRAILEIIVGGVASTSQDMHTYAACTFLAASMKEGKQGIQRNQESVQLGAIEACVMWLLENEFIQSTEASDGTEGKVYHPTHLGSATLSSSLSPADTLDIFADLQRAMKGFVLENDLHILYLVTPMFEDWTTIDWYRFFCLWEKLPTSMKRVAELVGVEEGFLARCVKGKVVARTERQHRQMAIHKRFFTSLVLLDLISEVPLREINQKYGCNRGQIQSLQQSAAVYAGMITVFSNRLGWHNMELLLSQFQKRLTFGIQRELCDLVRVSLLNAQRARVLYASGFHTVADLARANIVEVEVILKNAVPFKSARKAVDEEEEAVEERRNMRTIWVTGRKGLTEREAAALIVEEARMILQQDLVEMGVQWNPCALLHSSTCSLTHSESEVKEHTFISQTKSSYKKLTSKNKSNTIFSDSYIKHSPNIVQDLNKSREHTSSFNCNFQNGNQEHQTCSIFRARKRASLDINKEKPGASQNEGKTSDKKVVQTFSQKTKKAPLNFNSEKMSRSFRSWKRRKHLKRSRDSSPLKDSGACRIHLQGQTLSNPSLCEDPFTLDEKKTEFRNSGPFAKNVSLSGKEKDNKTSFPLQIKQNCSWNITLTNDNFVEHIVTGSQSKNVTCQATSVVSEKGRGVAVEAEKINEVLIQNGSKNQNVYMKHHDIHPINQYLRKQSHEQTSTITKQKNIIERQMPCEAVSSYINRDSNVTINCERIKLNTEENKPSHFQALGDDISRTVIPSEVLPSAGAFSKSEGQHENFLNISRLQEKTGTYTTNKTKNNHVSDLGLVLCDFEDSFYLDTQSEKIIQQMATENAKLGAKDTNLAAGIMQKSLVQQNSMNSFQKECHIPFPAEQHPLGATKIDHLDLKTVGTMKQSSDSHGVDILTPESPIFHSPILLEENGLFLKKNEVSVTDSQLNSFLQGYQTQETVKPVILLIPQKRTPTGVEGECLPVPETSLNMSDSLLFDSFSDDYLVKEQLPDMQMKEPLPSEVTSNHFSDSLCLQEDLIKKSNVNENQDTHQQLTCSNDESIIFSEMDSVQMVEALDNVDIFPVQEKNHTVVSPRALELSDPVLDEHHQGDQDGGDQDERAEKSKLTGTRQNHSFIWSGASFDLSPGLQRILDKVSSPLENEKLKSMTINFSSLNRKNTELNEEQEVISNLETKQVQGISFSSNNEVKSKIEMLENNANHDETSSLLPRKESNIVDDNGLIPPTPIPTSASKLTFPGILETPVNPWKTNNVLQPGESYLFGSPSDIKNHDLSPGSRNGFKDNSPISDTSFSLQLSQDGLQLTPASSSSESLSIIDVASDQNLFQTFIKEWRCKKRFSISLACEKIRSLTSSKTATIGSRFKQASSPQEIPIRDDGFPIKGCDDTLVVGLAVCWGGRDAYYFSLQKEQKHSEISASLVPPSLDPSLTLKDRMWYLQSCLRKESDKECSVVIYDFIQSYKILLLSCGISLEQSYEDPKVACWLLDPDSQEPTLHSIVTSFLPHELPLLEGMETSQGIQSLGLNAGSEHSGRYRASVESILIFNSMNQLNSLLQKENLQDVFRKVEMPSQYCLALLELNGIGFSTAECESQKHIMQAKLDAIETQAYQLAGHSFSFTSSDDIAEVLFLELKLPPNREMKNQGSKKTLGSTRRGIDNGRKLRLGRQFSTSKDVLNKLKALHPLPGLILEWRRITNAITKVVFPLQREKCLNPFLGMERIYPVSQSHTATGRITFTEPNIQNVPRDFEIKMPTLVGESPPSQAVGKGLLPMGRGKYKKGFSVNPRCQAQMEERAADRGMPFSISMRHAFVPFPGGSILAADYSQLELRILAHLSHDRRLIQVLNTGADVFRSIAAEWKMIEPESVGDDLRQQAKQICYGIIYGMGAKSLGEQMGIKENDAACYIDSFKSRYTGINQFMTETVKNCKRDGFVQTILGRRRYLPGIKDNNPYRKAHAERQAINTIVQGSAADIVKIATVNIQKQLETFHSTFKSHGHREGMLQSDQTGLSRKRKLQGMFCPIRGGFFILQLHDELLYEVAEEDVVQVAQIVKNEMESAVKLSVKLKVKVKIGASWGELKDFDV

MCF-10A = experiment: Effect on DNA polymerase theta expression in human MCF-10A cells by immunoblotting analysis; assay type: functional, cell-based
MDA-MB-231 [16] = experiment: Induction of apoptosis in human MDA-MB-231 cells at 2 uM incubated for 3 days by Annexin V-APC/7-AAD based flow cytometry analysis; assay type: functional; conditions: time 3 day
[17] = Metabolic stability in human liver microsome assessed as intrinsic clearance; assay type: ADME; conditions: liver microsomes, read-out: CLH
MDA-MB-231 [18] = experiment: Antitumor activity against human MDA-MB-231 cells xenografted in ip dosed BALB/c mouse assessed as increase in gammaH2Ax expression administered for 21 days; assay type: functional, organism-based; conditions: dose 20-40 mg/kg, time 21.0 day
[19] = Metabolic stability in human liver microsome assessed as half life; assay type: ADME; conditions: liver microsomes
[20] = Toxicity in BALB/c mouse xenografted with human MDA-MB-231 cells assessed as liver damage at 20 to 40 mg/kg, ip administered for 21 days by H and E staining based analysis; assay type: organism-based; conditions: in vivo, 504 h, dose 20-40 mg/kg, time 21 day

Question: With COc1ccc(Cl)cc1-c1cc(C)ncc1C(=O)Nc1nnc(OCC2CCN(C(=O)c3cc(Cc4n[nH]c(=O)c5ccccc45)ccc3F)CC2)s1 as the compound, how does the pIC50 [1] read?
Answer: 6.81

Question: What about the Activity (MDA-MB-231 [2]) of the same compound?
Answer: Active

Question: What about the pIC50 (MDA-MB-436 [3]) of the same compound?
Answer: 5.57

Question: What about the Tmax [4] of the same compound?
Answer: 4.8 min

Question: And the MRT inf [5]?
Answer: 36 min

Question: And the IC50 at 5 days [6]?
Answer: > 80000 nM

Question: And the Activity (MDA-MB-436 [7])?
Answer: Active

Question: And the Activity (MDA-MB-231 [8])?
Answer: Active

Question: What about the AUC(0-inf) [9] of the same compound?
Answer: 738 ng·h/mL

Question: And the Activity (MDA-MB-231 [10])?
Answer: Active

Question: What about the half-life [11] of the same compound?
Answer: 3.11 min

Question: What about the AUC(0-t) [12] of the same compound?
Answer: 724 ng·h/mL

Question: And the pIC50 [13]?
Answer: 7.29

Question: And the half-life [14]?
Answer: 5.1 min

Question: What about the Cmax [15] of the same compound?
Answer: 1950 ng/mL

Question: And the pIC50 (DNA polymerase theta)?
Answer: 7.34

Question: What about the Activity (MCF-10A) of the same compound?
Answer: Active

Question: What about the Activity (MDA-MB-231 [16]) of the same compound?
Answer: 26.7%

Question: What about the CLint scaled [17] of the same compound?
Answer: 681 mL/min/kg

Question: And the Activity (MDA-MB-231 [18])?
Answer: Dose-Dependent Effect

Question: And the half-life [19]?
Answer: 2.35 min

Question: And the Activity [20]?
Answer: Non-Toxic
